Measured values taken from patent US20200255492A1, “LEPTIN PEPTIDES AND THEIR USE FOR TREATING NEUROLOGICAL DISORDERS” (UNIVERSITY OF DUNDEE, priority 2017, published 2020).

Assays:
mice = test: Murine episodic-like memory test with hexamers; format: in vivo; settings: IP 7.8 nM/ml; tested 45 minutes post-injection; vs saline
Description: FIG. 24. Bar chart of the quantification of the fluorescent signal per cell following thioflavin S staining of neuronal cultures 96 hours after seeding with 1 μM Amyloid (Ab1-42). Cultures were established in triplicate on 3 separate occasions and statistical significance relative to control untreated cultures is denoted by *** where P<0.001 (A). […] 3 groups of mice (n=8 per group) were IP injected with saline (control) on 7.8 nM/ml leptin116-121 or […]. Memory performance was tested 45 minutes post-injection. Statistical significance relative to saline-injected animals is denoted by * where P<0.05. […] Leptin levels were determined by ELISA, using a commercially-supplied kit (Sigma, UK) and using blood serum harvested 24 hours post injection.
Further to this we have evaluated the effects of these hexamer peptides on episodic memory in mice. There is an 8 fold increase in episodic memory performance following treatment with leptin116-121 or […] (FIG. 24B). This implies that both leptin hexamers enhance the ability of the mice to recognise the presence of a novel object within the test arena.

STAT3 = test: ELISA ratio of phospho-STAT3 to pan-STAT3; format: cell-based, human; settings: 1 nM; 3 h
Description: The human neuroblastoma cell line, SH-SY5Y (ECACC, UK) was maintained in Dulbecco's Modified Eagle Medium supplemented with glucose ([…]) and 10% (v/v) cosmic calf serum (Fisher Scientific, UK) at 37° C. in a humidified atmosphere of 5% CO2, 95% air and allowed to reach 70-80% confluence before seeding. Cells (passage 10-18) were plated at 10 000 cells per well in 96 well tissue culture plates (Nunc, VWR, UK) and at a density of 2×10^5 cells in 35 mm dishes for protein extraction. To induce differentiation, cells were cultured in DMEM supplemented with glucose ([…]), 1% (v/v) cosmic calf serum and 10 μM retinoic acid for 5 days. Thereafter they were incubated in DMEM supplemented with glucose ([…]), serum replacement 2 (2%; Sigma, UK) and 18 μM 5-fluorodeoxyuridine to inhibit proliferation of undifferentiated cells. The 50% of the medium was changed every 2-3 days and pharmacological treatment was carried out 7 days after switching to this medium. Reagents used were (from Sigma UK unless stated) 0.1-10 nM human leptin and leptin (116-130); 0.1-10 nM leptin (22-56; Bachem; Switzerland); 10 nM leptin (116-121) leptin (117-122), leptin (124-129) or leptin (125-130; all Severn Biotech, UK); 5 μM copper chloride; […], 5 μM WP1066 or 50 nM wortmannin. […]

C57/BL6 mice = test: Object-place-context (OPC) recognition task, episodic-like memory; format: in vivo; settings: 100 μl IP of 7.8 nM/ml 30 min prior to testing
Description: FIG. 7A, FIG. 7B, FIG. 7C and FIG. 7D show Leptin (116-130) enhances episodic-like memory. FIG. 7A: object-place-context task used to assess episodic-like memory. There are 2 sample phases in which mice are exposed to different copies of 2 different objects (star and hexagon) and allowed to explore for 3 min. In the test phase they see 2 new copies of 1 of the objects. The arrow points to the object that has not been previously seen in that place within that context. FIG. 7B: mean±SEM discrimination index for the 3 groups. *P<0.05. FIG. 7C: total exploration time in the test phase is not different between groups. FIG. 7D: exploration of the novel and familiar objects in the test phase; treatment with leptin or the leptin fragment (116-130) enhanced performance on the episodic-like memory test.
To further assess its therapeutic potential we next asked if this fragment has similar cognitive enhancing properties to the whole leptin molecule. Previous studies indicate that leptin enhances hippocampal-dependent memory (Oomura et al. 2006; Farr et al. 2006), whereas resistance to lep-tin results in impaired spatial memory (Li et al. 2002). We used the object-place-context (OPC) recognition task which models human episodic memory, the first cognitive process to be compromised in the early stages of AD (Swainson et al. 2001). […]

CSLPQT (listed as Mus musculus) [leptin (117-122)]
increase in episodic memory performance (mice): 8 fold

SCSLPQ (listed as Mus musculus) [leptin (116-121)]
increase in episodic memory performance (mice): 8 fold

SCSLPQTSGLQKPES (listed as Mus musculus) [leptin (116-130)]
ratio of phosphorylated STAT3 to pan STAT3 (STAT3): increased markedly
performance (discrimination index) in episodic-like OPC task (C57/BL6 mice): enhanced performance on the task relative to the control group

leptin: the metabolic hormone leptin, whole (full length) leptin molecule; human leptin from Sigma in SH-SY5Y work
performance (discrimination index) in episodic-like OPC task (C57/BL6 mice): enhanced performance on the task relative to the control group
